Source: the NIST ThermoML archive (doi:10.1021/acs.jced.9b00375)
± gives the expanded uncertainty stated by the source.

Tests used:
[1] = 298.15 K; 101.3 kPa; Liquid; Vibrating tube method
[2] = wn = mass fraction of the nth substance listed; conditions: 298.15 K, 101.3 kPa, Liquid, Vibrating tube method

NCCO.O=CO [2-hydroxyethylammonium formate]
mass density [1]: 1215 ± 16 kg/m3

NCCO.O=CO [2-hydroxyethylammonium formate] + CCCCC
mass density ([2]; w2 = 0.9491): 625.1 ± 16 kg/m3

NCCO.O=CO [2-hydroxyethylammonium formate] + CCCCCC
mass density ([2]; w2 = 0.0028): 1182.7 ± 16 kg/m3
mass density ([2]; w2 = 0.0063): 1194.1 ± 16 kg/m3
mass density ([2]; w2 = 0.997): 655.6 ± 16 kg/m3
mass density ([2]; w2 = 0.9982): 663.6 ± 16 kg/m3

NCCO.O=CO [2-hydroxyethylammonium formate] + CCCCCCC
mass density ([2]; w2 = 0.0045): 1183 ± 16 kg/m3
mass density ([2]; w2 = 0.9989): 680 ± 16 kg/m3

NCCO.O=CO [2-hydroxyethylammonium formate] + CCCCCCCC
mass density ([2]; w2 = 0.0035): 1192.6 ± 16 kg/m3
mass density ([2]; w2 = 0.9955): 699.5 ± 16 kg/m3
mass density ([2]; w2 = 0.9971): 699.7 ± 16 kg/m3

CCO [ethanol]
mass density [1]: 785.7 ± 16 kg/m3

CCCCCCC [heptane]
mass density [1]: 679 ± 16 kg/m3

CCCCCC [hexane]
mass density [1]: 668 ± 16 kg/m3

CO [methanol]
mass density [1]: 786.7 ± 16 kg/m3

CCCCCCCC [octane]
mass density [1]: 698.7 ± 16 kg/m3

CCCCC [pentane]
mass density [1]: 621.3 ± 16 kg/m3
